One test has as its target T1, FPR1 (Homo sapiens, UniProt P21462).
T1 construct: expressed in transfected cells; host or cells: HEK293T
T1 sequence (P21462 1-350): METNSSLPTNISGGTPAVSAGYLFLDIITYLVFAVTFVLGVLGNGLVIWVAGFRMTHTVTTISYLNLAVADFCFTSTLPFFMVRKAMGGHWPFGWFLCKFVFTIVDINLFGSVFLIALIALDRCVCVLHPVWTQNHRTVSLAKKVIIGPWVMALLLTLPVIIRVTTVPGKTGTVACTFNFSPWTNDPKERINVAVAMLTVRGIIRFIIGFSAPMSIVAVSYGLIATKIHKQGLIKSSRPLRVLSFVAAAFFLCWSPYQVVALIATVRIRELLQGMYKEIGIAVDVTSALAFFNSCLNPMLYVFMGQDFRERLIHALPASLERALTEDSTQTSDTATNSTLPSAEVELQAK
The test can be described thus: cell-based. Type of test: binding.

For a further test, the system named is human FPR2. In kind it is cell-based. Conditions: MPR peptides 30 μM, n = 3.
The next test concerns human FPR3. In kind it is cell-based. Conditions: MPR peptides 30 μM, n = 3.
Test [1] relates to neutrophil-like differentiated HL-60 cells (dHL-60). In kind it is cell-based, human. The settings on record: CV peptides 10 μM, n = 3–5.
The next test concerns neutrophils. In kind it is cell-based, human.
The subject of test [2] is ERK1/2 phosphorylation via FPR1. The test can be described thus: ERK1/2 phosphorylation assay in FPR1-transfected HEK293T cells. In kind it is cell-based, human. Conditions: MPR peptide 10 μM, 15 min. As to the method: 300.000 cells were seeded in each well of an uncoated 12-well plate. After 30 min settling time on ice, cells were treated with the respective stimulants and incubated at 37°C, 5% CO2 for 15 min. Cells were subsequently washed with 500 μL PBS and then lysed with 250 μL protein extraction buffer (50 mM Tris-HCl pH 8.0, 5 mM EDTA, 150 mM NaCl, 0.5% [v/v] Triton-X, 5 mM DTT, Roche complete protease inhibitor) for 5 min on ice. Lysates were then placed into protein low bind tubes (Eppendorf) and treated for 20 min in an ultrasonic bath. Samples were centrifuged at 4°C, 12.000 rpm for 20 min to remove debris. Supernatants were collected and stored at −20°C until further use. Protein concentrations were determined using ROTINanoquant in a F[…] multimode reader. Samples were mixed with LDS sample buffer and NuPAGE reduction agent and subsequently heated at 70°C for 10 min 20 μg of each sample were loaded onto a 10% Bis-Tris gel. SDS-PAGE was performed at […] for 40 min. Proteins were blotted onto nitrocellulose membranes using a Wet Tank blotting system at 350 mA for 60 min. Transfer was controlled by Ponceau S staining. Membranes were then blocked with 3% BSA and 0.1% Tween 20 in PBS (PBST) for 60 min. […] Detection of luminescence signals was performed with ECL Prime Kit in a LumiImager. […] Signals of actin staining were measured as described above. […]

The next test has as its system FPR2. Conditions: cited from earlier work. From the text: (§1) Besides viral peptides that interact with FPR1 and FPR2, we identified a large novel group of FPR3 specific viral activators - a receptor for which very few biological relevant activators have been described yet,[53]^,[72] leaving much room for speculations about its major biological function.[1]^,[2] In contrast to FPR1 and FPR2, for which a large panel of receptor subtype-selective ligands have been described, only two biological relevant agonists with a known preference for FPR3 were identified. One is the mitochondrial-derived neuroprotective peptide Humanin[51]^,[52]^,[73] that binds to F ...

Another test concerns FPR3. The settings on record: cited from earlier work.
Text: as §1

Test [3] relates to human polymorphonuclear granulocytes (PMN; neutrophils). In kind it is cell-based. Conditions: mix at 3 μM, 1 μM, 0.3 μM; MPR peptide 10 μM co-applied, n = 3.
In test [4] the test system is MMP-9 release of isolated PMNs. Type of test: cell-based, human. Conditions: activator mix 3 μM with MPR peptide, n = 5.

“Also recorded” adds a separate entry of the source. Peptide text beside a SMILES is read from it.

Take `CSCC[C@H](N)C(=O)N[C@@H](Cc1ccc(O)cc1)C(=O)N[C@H](C(=O)N[C@@H](CCCCN)C(=O)N[C@@H](Cc1c[nH]c2ccccc12)C(=O)N1CCC[C@H]1C(=O)N[C@@H](Cc1c[nH]c2ccccc12)C(=O)N[C@@H](Cc1ccc(O)cc1)C(=O)N[C@H](C(=O)N[C@@H](Cc1c[nH]c2ccccc12)C(=O)N[C@@H](CC(C)C)C(=O)O)C(C)C)C(C)C` [CV2*] (H-MYVKWPWYVWL-OH; N-terminus and C-terminus assumed): the “binding affinity for FPR1, FPR2, and FPR3, fold lower than the other MPR peptides” value at FPR1 was “approximately 10 fold”. Moreover, the “calcium levels in FPR2 transfected cells” value in the test with human FPR2 is “strongest”. For the same compound, in the test on human FPR3, the “calcium response of FPR3-transfected cells” value was “responded; also recorded: strongest; also recorded: FPR3 activation”. In addition, in [1], the “calcium signal in dHL-60 cells” value is “positive calcium flux”. Moreover, the neutrophil migration result in the test on neutrophils (MPR peptide 10 μM, 90 min, n = 3-5) is “triggers”. Besides, in [2], the “ERK signaling via FPR1” value is listed as “triggers”.
For “F2L: acetylated 21mer N-terminal cleavage product of heme-binding-protein-1”, the “concentrations that activate FPR2” value in the test on FPR2 is reported as “low micromolar”. Further, the “concentrations that activate FPR3” value with FPR3 is “low nanomolar”.
Turning to `CC[C@H](C)[C@H](NC(=O)[C@H](Cc1ccc(O)cc1)NC(=O)[C@@H](NC(=O)[C@@H](N)CCC(=O)O)[C@@H](C)O)C(=O)N[C@@H](CCCCN)C(=O)N[C@@H](Cc1c[nH]c2ccccc12)C(=O)N1CCC[C@H]1C(=O)N[C@@H](Cc1c[nH]c2ccccc12)C(=O)N[C@@H](Cc1c[nH]c2ccccc12)C(=O)N[C@H](C(=O)N[C@@H](Cc1c[nH]c2ccccc12)C(=O)N[C@@H](CC(C)C)C(=O)O)C(C)C` [CV1], in [3], the “effect on activator-mix-induced calcium flux in neutrophils” value is given as “calcium flux suppression”. In addition, the “inhibition of the migratory response to the activator peptide mix” value with neutrophils (MPR peptide 10 μM co-applied, n = 5) is on record as “near complete inhibition”. Moreover, the “effect on activator-mix-triggered MMP-9 release” value in test [4] was “attenuated”.

Values taken from article PMC12284294 (iScience, 2025).
